Reference: patent US7150967B2, “Fluorescent tags for amino acid and nucleic acid analysis” (University of Medicine & Dentistry of New Jersey, priority 2002, dated 2006)

Legend:
BSA = BSA (Bos taurus, UniProt P02769); test: Detection of a protein on a 10% PAGE gel via formation of a fluorescent reaction product; set-up: species or system bovine; conditions: BSA 150 μg, 1.5 nmol compound, 30 minutes at 37° C.
Method: In these experiments, BSA (150 μg) was reacted with the mercurimethyl-dihydropsoralen 3-cyanomercurio-H2DMP (1.5 nmol) for 30 minutes at 37° C. The products were then run on a 10% PAGE gel to separate any reaction product from unreacted psoralen. The fluorescent BSA-mercurimethyl-dihydropsoralen reaction product was […].

[1] = target: bovine serum albumin (BSA) (Bos taurus, UniProt P02769); test: Reaction with the thiol containing species bovine serum albumin, monitored by ultraviolet absorbance spectra; conditions: BSA 0.1 μg, 2.5 μmol compound, 30 minutes at 37° C.
Method: BSA (0.1 μg) was reacted with 2.5 μmol iodomercurio-H2DMP (IM-H2DMP) for 30 minutes at 37° C.

bovine serum albumin (BSA), sequence (P02769 25-607): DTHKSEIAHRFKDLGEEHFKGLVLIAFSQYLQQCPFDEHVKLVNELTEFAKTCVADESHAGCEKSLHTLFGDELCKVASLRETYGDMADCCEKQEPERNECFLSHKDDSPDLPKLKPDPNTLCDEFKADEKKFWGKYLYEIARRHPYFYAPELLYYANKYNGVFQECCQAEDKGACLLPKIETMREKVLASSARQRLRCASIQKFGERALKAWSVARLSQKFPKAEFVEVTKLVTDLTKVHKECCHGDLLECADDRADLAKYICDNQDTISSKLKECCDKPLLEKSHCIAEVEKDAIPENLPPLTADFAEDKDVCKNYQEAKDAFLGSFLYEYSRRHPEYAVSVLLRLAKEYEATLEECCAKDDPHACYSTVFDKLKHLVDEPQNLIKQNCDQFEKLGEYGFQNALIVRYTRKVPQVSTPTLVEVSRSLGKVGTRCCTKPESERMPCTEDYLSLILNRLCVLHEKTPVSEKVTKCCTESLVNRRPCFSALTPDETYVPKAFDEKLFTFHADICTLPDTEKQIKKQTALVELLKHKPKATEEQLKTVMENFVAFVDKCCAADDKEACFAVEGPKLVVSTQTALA

Row | SMILES | ability to detect a protein on a gel via fluorescent reaction product (BSA) | change in ultraviolet absorbance spectra (formation of new reaction product) [1]
1 | CC(=O)[O][Hg][CH2]C1Cc2cc3c(C)c(C#N)c(=O)oc3c(C)c2O1 (centres unmarked) [Compound P6, 3-cyano-acetylmercurio-H2DMP] | demonstrated | –
2 | Cc1cc(=O)oc2c(C)c3c(cc12)CC([CH2][Hg][I])O3 (centres unmarked) [Compound P1, iodomercurio-H2DMP] | – | change in the ultraviolet absorbance spectra indicative of formation of a new reaction product was observed
